Assay results: patent publication US20220227737A1, “NOVEL OXALYL PIPERAZINES ACTIVE AGAINST THE HEPATITIS B VIRUS (HBV)” (AiCuris GmbH & Co. KG, priority 2019, published 2022)

Target: T1, C-terminal truncated core protein (HBV core dimer, BODIPY-FL labelled) (UniProt P03146)
T1 construct: fused on or other part: One added cysteine at position 150, labelled with BODIPY-FL maleimide; The C-terminal arginine-rich domain is absent
Assay: Biochemical capsid assembly assay (fluorescence quenching)
Method: Biochemical Capsid Assembly Assay
The screening for assembly effector activity was done based on a fluorescence quenching assay published by Zlotnick et al. (2007). The C-terminal truncated core protein containing 149 amino acids of the N-terminal assembly domain fused to a unique cysteine residue at position 150 and was expressed in E. coli using the pET expression system (Merck Chemicals, Darmstadt). Purification of core dimer protein was performed using a sequence of size exclusion chromatography steps. In brief, the cell pellet from 1 L BL21 (DE3) Rosetta2 culture expressing the coding sequence of core protein cloned NdeI/XhoI into expression plasmid pET21b was treated for 1 h on ice with a native lysis buffer (Qproteome Bacterial Protein Prep Kit; Qiagen, Hilden). After a centrifugation step the supernatant was precipitated during 2 h stirring on ice with 0.23 g/ml of solid ammonium sulfate. Following further centrifugation the resulting pellet was resolved in buffer A (100 mM Tris, pH 7.5; 100 mM NaCl; 2 mM DTT) and was subsequently loaded onto a buffer A equilibrated CaptoCore 700 column (GE HealthCare, Frankfurt). The column flow through containing the assembled HBV capsid was dialyzed against buffer N (50 mM NaHCO3 pH 9.6; 5 mM DTT) before urea was added to a final concentration of 3M to dissociate the capsid into core dimers for 1.5 h on ice. The protein solution was then loaded onto a 1 L Sephacryl 5300 column. After elution with buffer N core dimer containing fractions were identified by SDS-PAGE and subsequently pooled and dialyzed against 50 mM HEPES pH 7.5; 5 mM DTT. To improve the assembly capacity of the purified core dimers a second round of assembly and disassembly starting with the addition of 5 M NaCl and including the size exclusion chromatography steps described above was performed. From the last chromatography step core dimer containing fractions were pooled and stored in aliquots at concentrations between 1.5 to 2.0 mg/ml at −80° C.
Immediately before labelling the core protein was reduced by adding freshly prepared DTT in a final concentration of 20 mM. After 40 min incubation on ice storage buffer and DTT was removed using a Sephadex G-25 column (GE HealthCare, Frankfurt) and 50 mM HEPES, pH 7.5. For labelling 1.6 mg/ml core protein was incubated at 4° C. and darkness overnight with BODIPY-FL maleimide (Invitrogen, Karlsruhe) in a final concentration of 1 mM. After labelling the free dye was removed by an additional desalting step using a Sephadex G-25 column. Labelled core dimers were stored in aliquots at 4° C. In the dimeric state the fluorescence signal of the labelled core protein is high and is quenched during the assembly of the core dimers to high molecular capsid structures. The screening assay was performed in black 384 well microtiter plates in a total assay volume of 10 μl using 50 mM HEPES pH 7.5 and 1.0 to 2.0 μM labelled core protein. Each screening compound was added in 8 different concentrations using a 0.5 log-unit serial dilution starting at a final concentration of 100 μM, 31.6 μM or 10 μM, In any case the DMSO concentration over the entire microtiter plate was 0.5%. The assembly reaction was started by the injection of NaCl to a final concentration of […] which induces the assembly process to approximately 25% of the maximal quenched signal. […] after starting the reaction the fluorescence signal was measured using a Clariostar plate reader (BMG Labtech, Ortenberg) with an excitation of 477 nm and an emission of 525 nm. As 100% and 0% assembly control HEPES buffer containing 2.5 M and 0 M NaCl was used. Experiments were performed thrice in triplicates. EC50 values were calculated by non-linear regression analysis using the Graph Pad Prism 6 software (GraphPad Software, La Jolla, USA).

T1 sequence (P03146 whole entry, the tested form may be a part): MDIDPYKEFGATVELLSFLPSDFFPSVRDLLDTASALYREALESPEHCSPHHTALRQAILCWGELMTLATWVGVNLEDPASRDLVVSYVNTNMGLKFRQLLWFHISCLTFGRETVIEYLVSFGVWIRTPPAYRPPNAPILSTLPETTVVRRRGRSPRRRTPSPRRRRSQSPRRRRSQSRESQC

| SMILES | IC50 |
| --- | --- |
| O=C1CC2(CC(CNC(=O)C(=O)N3CCN(C(=O)c4cc5ccccc5[nH]4)CC3)C2)N1 (centres unmarked) [Example 19, 2-(4-(1H-indole-2-carbonyl)piperazin-1-yl)-2-oxo-N-((2-oxo-1-azaspiro[3.3]heptan-6-yl)methyl)acetamide] | < 100 µM |
| CC(C)(C)NC(=O)C(=O)N1CCN(C(=O)c2cc3cc(F)c(F)cc3[nH]2)CC1 [Example 42, N-tert-butyl-2-[4-(5,6-difluoro-1H-indole-2-carbonyl)piperazin-1-yl]-2-oxoacetamide] | 5 to 10 µM |
| C#CCNC(=O)C(=O)N1CCN(C(=O)c2cc3ccccc3[nH]2)CC1 [Example 15, 2-(4-(1H-indole-2-carbonyl)piperazin-1-yl)-2-oxo-N-(prop-2-yn-1-yl)acetamide] | < 5 µM |
| CC(C)(CC(F)(F)F)NC(=O)C(=O)N1CCN(C(=O)c2cc3ccccc3[nH]2)CC1 [Example 69, 2-[4-(1H-indole-2-carbonyl)piperazin-1-yl]-2-oxo-N-(4,4,4-trifluoro-2-methylbutan-2-yl)acetamide] | < 5 µM |
| C[C@H](O)CNC(=O)C(=O)N1CCN(C(=O)c2cc3ccccc3[nH]2)CC1 [Example 36, (S)-2-(4-(1H-indole-2-carbonyl)piperazin-1-yl)-N-(2-hydroxypropyl)-2-oxoacetamide] | < 5 µM |
| Cc1cccc2[nH]c(C(=O)N3CCN(C(=O)C(=O)NC(C)(C)C)CC3)cc12 [Example 44, N-(tert-butyl)-2-(4-(4-methyl-1H-indole-2-carbonyl)piperazin-1-yl)-2-oxoacetamide] | < 5 µM |
| O=C1CCC(CNC(=O)C(=O)N2CCN(C(=O)c3cc4ccccc4[nH]3)CC2)N1 (centres unmarked) [Example 14, 2-[4-(1H-indole-2-carbonyl)piperazin-1-yl]-2-oxo-N-[(5-oxopyrrolidin-2-yl)methyl]acetamide] | < 100 µM |
| C[C@H](NC(=O)C(=O)N1CCN(C(=O)c2cc3ccccc3[nH]2)CC1)C(F)(F)F [Example 37, 2-[4-(1H-indole-2-carbonyl)piperazin-1-yl]-2-oxo-N-[(2S)-1,1,1-trifluoropropan-2-yl]acetamide] | < 5 µM |
| C[C@@H]1CN(C(=O)C(=O)NC(C)(C)C)CCN1C(=O)c1cc2ccccc2[nH]1 [Example 50, (R)-2-(4-(1H-indole-2-carbonyl)-3-methylpiperazin-1-yl)-N-(tert-butyl)-2-oxoacetamide] | < 5 µM |
| CCC(C)(C)NC(=O)C(=O)N1CCN(C(=O)c2cc3ccccc3[nH]2)CC1 [Example 67, 2-[4-(1H-indole-2-carbonyl)piperazin-1-yl]-N-(2-methylbutan-2-yl)-2-oxoacetamide] | < 5 µM |
| CCCCNC(=O)C(=O)N1CCN(C(=O)c2cc3cc(F)ccc3[nH]2)CC1 [Example 27, N-butyl-2-(4-(5-fluoro-1H-indole-2-carbonyl)piperazin-1-yl)-2-oxoacetamide] | < 5 µM |
| CC1(NC(=O)C(=O)N2CCN(C(=O)c3cc4ccccc4[nH]3)CC2)CCOCC1 [Example 39, 2-(4-(1H-indole-2-carbonyl)piperazin-1-yl)-N-(4-methyltetrahydro-2H-pyran-4-yl)-2-oxoacetamide] | < 5 µM |
| C[C@@H](NC(=O)C(=O)N1CCN(C(=O)c2cc3ccccc3[nH]2)CC1)C(F)(F)F [Example 38, (R)-2-(4-(1H-indole-2-carbonyl)piperazin-1-yl)-2-oxo-N-(1,1,1-trifluoropropan-2-yl)acetamide] | < 5 µM |
| CC(C)(C)NC(=O)C(=O)N1CCN(C(=O)c2cc3cc(F)c(Cl)cc3[nH]2)CC1 [Example 45, N-(tert-butyl)-2-(4-(6-chloro-5-fluoro-1H-indole-2-carbonyl)piperazin-1-yl)-2-oxoacetamide] | 5 to 10 µM |
| CC(C)(CCCO)NC(=O)C(=O)N1CCN(C(=O)c2cc3ccccc3[nH]2)CC1 [Example 68, N-(5-hydroxy-2-methylpentan-2-yl)-2-[4-(1H-indole-2-carbonyl)piperazin-1-yl]-2-oxoacetamide] | < 5 µM |
| NC(=O)C1(CNC(=O)C(=O)N2CCN(C(=O)c3cc4ccccc4[nH]3)CC2)CC(F)(F)C1 [Example 21, 1-((2-(4-(1H-indole-2-carbonyl)piperazin-1-yl)-2-oxoacetamido)methyl)-3,3-difluorocyclobutane-1-carboxamide] | 5 to 10 µM |
| CC(C)(C)NC(=O)C(=O)N1CCCN(C(=O)c2cc3ccccc3[nH]2)CC1 [Example 51, 2-(4-(1H-indole-2-carbonyl)-1,4-diazepan-1-yl)-N-(tert-butyl)-2-oxoacetamide] | < 100 µM |
| NC(=O)C1(CNC(=O)C(=O)N2CCN(C(=O)c3cc4ccccc4[nH]3)CC2)CCC1 [Example 20, 1-((2-(4-(1H-indole-2-carbonyl)piperazin-1-yl)-2-oxoacetamido)methyl)cyclobutane-1-carboxamide] | < 100 µM |
| O=C(NCC1(O)CC1)C(=O)N1CCN(C(=O)c2cc3ccccc3[nH]2)CC1 [Example 18, 2-(4-(1H-indole-2-carbonyl)piperazin-1-yl)-N-((1-hydroxycyclopropyl)methyl)-2-oxoacetamide] | < 100 µM |
| C[C@H]1CN(C(=O)C(=O)NC(C)(C)C)CCN1C(=O)c1cc2ccccc2[nH]1 [Example 49, (S)-2-(4-(1H-indole-2-carbonyl)-3-methylpiperazin-1-yl)-N-(tert-butyl)-2-oxoacetamide] | < 100 µM |
| O=C(NC1CCOCC1)C(=O)N1CCN(C(=O)c2cc3ccccc3[nH]2)CC1 [Example 40, 2-(4-(1H-indole-2-carbonyl)piperazin-1-yl)-2-oxo-N-(tetrahydro-2H-pyran-4-yl)acetamide] | 5 to 10 µM |
| C[C@@H]1CN(C(=O)C(=O)NC(C)(C)C)[C@@H](C)CN1C(=O)c1cc2ccccc2[nH]1 [Example 48, N-tert-butyl-2-[(2S,5R)-4-(1H-indole-2-carbonyl)-2,5-dimethylpiperazin-1-yl]-2-oxoacetamide] | < 5 µM |
| O=C(N[C@H]1CC[C@@H](O)CC1)C(=O)N1CCN(C(=O)c2cc3ccccc3[nH]2)CC1 [Example 16, 2-(4-(1H-indole-2-carbonyl)piperazin-1-yl)-N-((1s,4s)-4-hydroxycyclohexyl)-2-oxoacetamide] | 5 to 10 µM |
| O=C(N[C@H]1C[C@H](O)C1)C(=O)N1CCN(C(=O)c2cc3ccccc3[nH]2)CC1 [Example 17, 2-(4-(1H-indole-2-carbonyl)piperazin-1-yl)-N-((1 r,3 r)-3-hydroxycyclobutyl)-2-oxoacetamide] | 5 to 10 µM |
| CC(C)(C)NC(=O)C(=O)N1CCN(C(=O)c2cc3c(F)cc(F)cc3[nH]2)CC1 [Example 43, N-(tert-butyl)-2-(4-(4,6-difluoro-1H-indole-2-carbonyl)piperazin-1-yl)-2-oxoacetamide] | < 5 µM |
| O=C(NC1CCCCCC1)C(=O)N1CCN(C(=O)c2cc3ccccc3[nH]2)CC1 [Example 70, N-cycloheptyl-2-[4-(1H-indole-2-carbonyl)piperazin-1-yl]-2-oxoacetamide] | 5 to 10 µM |
| CC1(NC(=O)C(=O)N2CCN(C(=O)c3cc4ccccc4[nH]3)CC2)CCCCCC1 [Example 66, 2-[4-(1H-indole-2-carbonyl)piperazin-1-yl]-N-(1-methylcycloheptyl)-2-oxoacetamide] | 5 to 10 µM |
| COCC1(NC(=O)C(=O)N2CCN(C(=O)c3cc4ccccc4[nH]3)CC2)CCC1 [Example 41, 2-(4-(1H-indole-2-carbonyl)piperazin-1-yl)-N-(1-(methoxymethyl)cyclobutyl)-2-oxoacetamide] | < 5 µM |
| Cc1c(F)ccc2[nH]c(C(=O)N3CCN(C(=O)C(=O)NC(C)(C)C)CC3)cc12 [Example 46, N-(tert-butyl)-2-(4-(5-fluoro-4-methyl-1H-indole-2-carbonyl)piperazin-1-yl)-2-oxoacetamide] | 5 to 10 µM |
